Test results from PubChem BioAssay (NCI).
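These data come from cells grown in 96-well plates and exposed to compound for 48 hours at five concentrations. Definition used: TGI = concentration required for complete inhibition of growth.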

Key:
Assay in all cases: DTP human tumour cell line panel, 48 h
[1] = tested on: BT-549 breast
[2] = tested on: HOP-92 NSCLC
[3] = tested on: MOLT-4 leukemia
[4] = tested on: OVCAR-8 ovarian
[5] = tested on: SW-620 colon
[6] = tested on: HT29 colon
[7] = tested on: SNB-75 CNS
[8] = tested on: K-562 leukemia
[9] = tested on: HCT-15 colon
[10] = tested on: UO-31 renal
[11] = tested on: NCI/ADR-RES ovarian
[12] = tested on: HOP-62 NSCLC
[13] = tested on: SF-268 CNS
[14] = tested on: SK-OV-3 ovarian
[15] = tested on: U251 CNS
[16] = tested on: OVCAR-4 ovarian
[17] = tested on: SNB-19 CNS
[18] = tested on: RXF 393 renal
[19] = tested on: IGROV1 ovarian
[20] = tested on: MALME-3M melanoma
[21] = tested on: RPMI-8226 leukemia
[22] = tested on: SF-295 CNS
[23] = tested on: SN12C renal
[24] = tested on: CCRF-CEM leukemia
[25] = tested on: TK-10 renal
[26] = tested on: A549 NSCLC
[27] = tested on: MDA-MB-435
[28] = tested on: PC-3 prostate
[29] = tested on: T-47D breast
[30] = tested on: KM12 colon
[31] = tested on: EKVX NSCLC
[32] = tested on: OVCAR-5 ovarian
[33] = tested on: NCI-H522 lung
[34] = tested on: MDA-MB-231 breast
[35] = tested on: NCI-H23 lung
[36] = tested on: A498 renal
[37] = tested on: NCI-H226 lung
[38] = tested on: UACC-257 melanoma
[39] = tested on: COLO 205 colon
[40] = tested on: MDA-N
[41] = tested on: DU-145 prostate
[42] = tested on: LOX IMVI melanoma
[43] = tested on: OVCAR-3 ovarian
[44] = tested on: SK-MEL-5 melanoma
[45] = tested on: HS 578T breast
[46] = tested on: SK-MEL-2 melanoma
[47] = tested on: SR leukemia
[48] = tested on: HCT-116 colon
[49] = tested on: 786-0 renal
[50] = tested on: M14 melanoma
[51] = tested on: SK-MEL-28 melanoma
[52] = tested on: CAKI-1 renal
[53] = tested on: UACC-62 melanoma
[54] = tested on: MCF7 breast
[55] = tested on: NCI-H460 lung
[56] = tested on: ACHN renal
[57] = tested on: HL-60(TB) leukemia
[58] = tested on: HCC-2998 colon
[59] = tested on: SF-539 CNS

Measured: TGI

O=S(=O)(O)c1c(N=Nc2c(O)ccc3ccccc23)ccc2ccccc12
> 100 µM: [1] | [2] | [3] | [4] | [5] | [6] | [7] | [8] | [9] | [10] | [11] | [12] | [13] | [14] | [15] | [16] | [17] | [18] | [19] | [20] | [21] | [22] | [23] | [24] | [25] | [26] | [27] | [28] | [29] | [30] | [31] | [32] | [33] | [34] | [35] | [36] | [37] | [38] | [39] | [40] | [41] | [42] | [43] | [44] | [45] | [46] | [47] | [48] | [49] | [50] | [51] | [52] | [53]

C=CCOCn1ccc(=O)[nH]c1=O
> 100 µM: [1] | [3] | [4] | [5] | [6] | [7] | [54] | [8] | [9] | [10] | [12] | [13] | [14] | [17] | [19] | [20] | [21] | [55] | [22] | [23] | [24] | [25] | [26] | [56] | [27] | [28] | [29] | [30] | [31] | [33] | [34] | [35] | [57] | [36] | [37] | [58] | [38] | [39] | [40] | [41] | [59] | [42] | [44] | [45] | [47] | [48] | [49] | [50] | [51] | [52] | [53]
